According to patent US20200102353A1, “HUMAN ENDOGENOUS RETROVIRAL PROTEIN” (priority 2017, published 2020):

Experiments:
[1] = test system: HEMO gene; experiment: Effect of DNA demethylation on HEMO gene expression, RT-qPCR; assay type: cell-based, human; conditions: for dose at which HEMO transcripts were detectable by qRT-PCR: 3-day treatment, doses 0.1 to 5 μM
Description: For treatment with 5-Aza-2′-deoxycytidine (5-Aza-dC; SIGMA-ALDRICH), 2×10^5 BeWo and 293T cells were plated in 6-well dishes. Doses ranging from 0.1 to 5 μM of 5-Aza-dC were then added to the culture for 3 days, with fresh medium each day. Cells were harvested for RNA extraction one day later.
Total RNAs from human tissues and cells were either purchased from ZYAGEN (San Diego), or isolated using the RNAeasy Isolation Kit (QIAGEN) according to the manufacturer's instructions, and treated with Dnase I (AMBION). Reverse transcription was performed with 1 μg of RNA using the MLV reverse-transcriptase (APPLIED BIOSYSTEMS). Real-time quantitative PCR was carried out with 5 μl of diluted (1:20) cDNA in a final volume of 25 μl by using SYBR green PCR master mix (QIAGEN). qPCR was carried out with an ABI Prism 7000 sequence detection system, using primers listed in Table 4 above. Transcript levels were normalized relative to the amount of a housekeeping gene (RPLPO or G6PD) mRNA. Samples were assayed in duplicate.

[2] = test system: HEMO release in the supernatant; experiment: Inhibition of HEMO release (shedding) in supernatant of phCMV-HEMO transfected 293T cells, Western blot; assay type: cell-based, human; conditions: 293T cells transfected with phCMV-HEMO, treated 3 days, BATIMASTAT 0.1 to 10 μM, MARIMASTAT 0.1 to 10 μM, GM6001 1 to 50 μM
Description: For treatment with metalloprotease inhibitors, 5×10^5 293T cells were seeded in 6-well dishes with 2 mL/well of culture medium. One day after seeding, cells were transiently transfected using 1.5 μg phCMV-HEMO plasmid and 4.5 μL Lipofectamine LTX (THERMOFISHER) per well. One day post-transfection, cells were incubated with culture medium supplemented with the indicated concentrations of metalloprotease inhibitors (CALBIOCHEM): BATIMASTAT (0.1 to 10 μM), MARIMASTAT (0.1 to 10 μM) or GM6001 (1 to 50 μM). Medium with inhibitors was replenished for 2 other days, and supernatants were collected and filtered through 0.45 μm MILLIPORE filters one day later. Cells were harvested the same day for protein analysis.
Samples, cell supernatants or cell lysates were analyzed by SDS/PAGE on gradient precast gels (NuPAGE NOVEX 4-12% Bis-Tris gels, LIFE TECHNOLOGIES), and transfer onto nitrocellulose membranes using a semi-dry transfer system. […] Proteins were detected by using an enhanced chemiluminescence system (ECL, PIERCE).

Nc1ncn([C@H]2C[C@H](O)[C@@H](CO)O2)c(=O)n1 [5-Aza-dC, 5-Aza-2′-deoxycytidine]
dose at which HEMO transcripts were detectable by qRT-PCR ([1]; 293T cells): 5 µM | dose at which HEMO transcripts were detectable by qRT-PCR ([1]; BeWo cells): 0.1 µM | HEMO gene transcript level after treatment ([1]; CaCo-2 cells (HEMO-expressing), similar 5-Aza-dC treatment): not further amplified

CNC(=O)[C@@H](NC(=O)[C@H](CC(C)C)[C@H](O)C(=O)NO)C(C)(C)C [MARIMASTAT]
HEMO release in the supernatant [2]: clearly inhibited HEMO release in the supernatant

CNC(=O)[C@H](Cc1c[nH]c2ccccc12)NC(=O)[C@@H](CC(=O)NO)CC(C)C [GM6001]
HEMO release in the supernatant [2]: clearly inhibited HEMO release in the supernatant
